The series has as its target T1, Solute carrier organic anion transporter family member 1A4 (Rattus norvegicus, UniProt O35913).
T1 sequence (O35913 whole entry): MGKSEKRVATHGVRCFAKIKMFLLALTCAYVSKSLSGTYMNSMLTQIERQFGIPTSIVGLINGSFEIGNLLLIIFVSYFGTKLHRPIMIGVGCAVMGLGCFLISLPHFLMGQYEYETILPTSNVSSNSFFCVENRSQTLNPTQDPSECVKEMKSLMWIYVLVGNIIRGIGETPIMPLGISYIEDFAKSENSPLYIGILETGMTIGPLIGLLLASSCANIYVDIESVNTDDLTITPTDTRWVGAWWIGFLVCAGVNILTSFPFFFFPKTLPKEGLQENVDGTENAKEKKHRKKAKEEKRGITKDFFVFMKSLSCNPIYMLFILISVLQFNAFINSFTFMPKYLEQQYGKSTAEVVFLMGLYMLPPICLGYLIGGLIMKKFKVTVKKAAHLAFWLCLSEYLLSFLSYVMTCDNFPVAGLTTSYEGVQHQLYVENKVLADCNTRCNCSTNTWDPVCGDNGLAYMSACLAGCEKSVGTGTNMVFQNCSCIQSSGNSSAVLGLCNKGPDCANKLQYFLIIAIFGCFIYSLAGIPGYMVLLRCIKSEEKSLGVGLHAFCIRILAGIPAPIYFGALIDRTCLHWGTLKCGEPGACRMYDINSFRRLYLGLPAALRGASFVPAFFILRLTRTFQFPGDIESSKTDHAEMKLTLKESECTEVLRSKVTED
The series is described as follows: TP_TRANSPORTER: uptake in Xenopus laevis oocytes. It counts as functional, cell-based. The settings on record: oocyte.

As for `O=C(O)CCCC[C@@H]1SC[C@@H]2NC(=O)N[C@@H]21` [BIOTIN], the Activity result is “substrate [+]”.

The values are drawn from ChEMBL document CHEMBL2073989, “Immunohistochemical distribution and functional characterization of an organic anion transporting polypeptide 2 (oatp2)” (FEBS Lett, 1999).
